According to US20090239839A1, “RECEPTOR ANTAGONIST” (TAKEDA PHARMACEUTICAL COMPANY LIMITED, priority 2003, published 2009):
Where a name gives a salt, the structure may show the parent alone.

Assays:
[1] = biological target: T1, human-type OT7T022 (Homo sapiens, UniProt Q9GZQ6); assay: Binding inhibiting activity using human-type OT7T022-expressing CHO cell; settings: 125I-labeled Y-RFRP-3 100 pM, membrane fraction, room temperature 1.5 hours; read-out: IC50 value (binding inhibiting rate)
T1 construct: expressed in transfected cells; host or cells: CHO cells (membrane fraction)
Method: Assessment of Binding Inhibiting Activity of Test Compound Using Human-Type OT7T022-Expressing CHO Cell
Twenty μm of a peptide (Y-RFRP-3) (sequence: Tyr-Val-Pro-Asn-Leu-Pro-Gln-Arg-Phe-amide) (0.1 mM) in which a Tyr residue had been added to a N-terminus of hRFRP-3-8 (sequence: Val-Pro-Asn-Leu-Pro-Gln-Arg-Phe-amide) having binding inhibiting activity equivalent to that of endogenous human-type RFRP-3 (hRFRP-3-28) for human-type OT7T022-expressing CHO cell and 10 μl of distilled water were mixed, 20 μl of a lactoperoxidase solution (Sigma, prepared using 0.1 M HEPES-NaOH, pH 7.0 in 10 μg/mL), 10 μl of Iodine-125 (Amersham, IMS-30, 74 MBq), and 20 μl of 0.005% hydrogen peroxide (Wako Pure Chemical Industries, Ltd.) were successively mixed therein, the mixture was allowed to stand at room temperature for 10 minutes, 600 μl of 0.1% TFA-water was added, this was separated by reverse phase HPLC, a peak of the labeled form was collected, an equivalent amount of a buffer for a binding test (50 mM TrisHCl (pH 7.5), 0.1% BSA, 5 mM EDTA, 0.5 mM PMSF, 20 μg/mL leupeptin, 0.1 μg/mL pepstatin A, […]) was added, and this was immediately stored on ice. A part thereof was 1/100 diluted, radioactivity was measured with a γ-counter, and the remaining authentic product was distributed, which was stored at −30° C.
To a 96-well microplate were added 1 μg of a membrane fraction, a compound and Y-RFRP-3 labeled with ^125I, which had been diluted with a reaction buffer (50 mM Tris-HCl, 5 mM EDTA, 0.1% BSA, 0.5 mM PMSF, 20 μg/ml leupeptin, 0.1 μg/ml pepstatin A, 4 μg/ml E-64, 10 mM MgCl2, pH 7.5), to 100 pM to react them at room temperature for 1.5 hours. For measuring non-specific binding, non-labeled Y-RFRP-3 was further added to […]. Then, a membrane fraction was transferred to a unifilter GF/C (Perkin Elmer) by filtering the reaction mixture using a cell harvester (Perkin Elmer), and this was washed with a cooled 50 mM Tris buffer (pH 7.5) five times. The filter was dried, Microsinti (Packard) was added to the filter, and radioactivity was measured with Topcount (Packard).
A binding inhibiting rate (IC50 value) of a test compound is shown in [Table 1].

[2] = biological target: T1, human-type OT7T022; assay: Antagonist activity in cAMP production inhibiting test system using human-type OT7T022-expressing CHO cell; format: cell-based; settings: agonist human-type RFRP-3-8 20 nM + forskolin 2 μM, intracellular cAMP amount
Method: Test of Antagonist Activity of Compound in Camp Production Inhibiting Test System Using Human-Type OT7T022-Expressing CHO Cell
Antagonist activity of a test compound was measured in an intracellular cAMP production inhibiting test system of a CHO cell expressing human-type OT7T022. In the cAMP production inhibiting test, as an assay buffer, a Hanks' balanced salt solution (Gibco) to which 20 mM HEPES pH 7.4, 0.1% bovine serum albumin, and 0.2 mM 3-isobutyl-1-methylxanthine (Sigma) had been added, was used. A sample compound was adjusted with an assay buffer so that the final concentration became 10^−5M, 10^−6M, 10^−7M, 10^−8M, or 10^−10M. An agonist: human-type RFRP-3-8 (Val-Pro-Asn-Leu-Pro-Gln-Arg-Phe-amide) was diluted with an assay buffer obtained by adding 4 μM (final concentration 2 μM) forscoline to 40 nM (final concentration 20 nM). A human-type OT7T022-expressing CHO cell was passaged on a 96-well plate at 4×10^4/well, and cultured at 37° C., 5% CO2 and 95% air for one day. The plate which had been cultured for one day was washed with an assay buffer (150 μl) two times and, after 30 minutes, this was cultured for 30 minutes at 37° C. and 100% air. […] An intracellular cAMP amount was measured according to a protocol of the present kit using cAMP-Screen™ system (ABI). […]

[3] = biological target: T2, rat-type OT7T022 (Rattus norvegicus, UniProt Q9EP86); assay: Binding inhibiting activity using rat-type OT7T022-expressing CHO cell membrane fraction; settings: iodine-labeled Y-RFRP-3 100 pM, membrane fraction 0.75 μg/well
T2 construct: expressed in transfected cells; host or cells: CHO cells (membrane fraction)
Method: Assessment of Binding Inhibiting Activity of Test Compound Using Rat-Type OT7T022-Expressing CHO Cell
A flask in which a rat-type OT7T022-expressing CHO cell had been cultured was washed with 5 mM EDTA/PBS, cells were peeled with 5 mM EDTA/PBS, and cells were recovered by centrifugation, suspended in 25 mL of a buffer for preparing a membrane fraction (50 mM Tris-HCl, pH 7.5, 5 mM EDTA, 0.5 mM PMSF (manufactured by Wako Pure Chemical Industries, Ltd.), […] (manufactured by Peptide Laboratory), 0.1 μg/mL pepstatin A (manufactured by Peptide Laboratory), 4 μg/mL E-64 (manufactured by Peptide Laboratory)), and homogenized on an ice using Polytron (12,000 rpm, 15 seconds×3 times). This was centrifuged in a high speed cooling centrifuge at 4° C. and 1,000 g for 10 minutes, and the supernatant was recovered. 25 mL of a buffer for preparing a membrane fraction was added to precipitates, and the supernatant was recovered by the same procedure. These supernatants were combined, subjected to a cell strainer, dispensed into tubes for a supercentrifuge, and centrifuged at 4° C. and 100,000 g for 1 hour. The pellet was suspended in a small amount of a buffer for preparing a membrane fraction, this was suspended using a Teflon (registered trade mark) homogenizer, a protein amount was measured using a part, and the remaining was dispensed, and stored at −80° C.
Using an assay buffer (50 mM Tris-HCl, pH 7.5, 5 mM EDTA, 0.5 mM PMSF, 20 μg/mL leupeptin, 0.1 μg/mL pepstatin A, 4 μg/mL E-64, 0.1% bovine serum albumin, 10 mM MgCl2), a membrane fraction of a rat-type OT7T022-expressing CHO cell was diluted to the final concentration of 0.75 μg/well, and iodine-labeled Y-RFRP-3 was diluted to the final concentration of 100 pM. Regarding a sample compound, a 10^−2M or 10^−3M stock solution was diluted with an assay buffer so that the final concentration became 10^−5M, 10^−6M, 10^−7M, 10^−8M, 10^−9M, 10^−10M or 10^−11M. For non-specific binding, hRFRP-3-8 having the final concentration of 10^−5M was prepared. Using a polypropylene 96-well plate, a prepared sample solution, a non-specific binding solution, and 50 μl of an assay buffer for total binding were dispensed, 25 μl of an iodine-labeled form diluent was added, the mixture was stirred, 25 μl of a rat-type OT7T022-expressing CHO cell membrane fraction solution was dispensed, and this was stirred, and incubated at room temperature for 1.5 hours. This was transferred to a unifilter (Perkin Elmer) pre-wetted with a washing buffer (50 mM Tris-HCl, pH 7.5) using a harvester for a 96-well plate (Packard), and this was washed with a washing buffer six times, and sufficiently dried. 50 μl of Microscinti O (Packard) was dispensed, radioactivity was measured with Top Count (Packard), and data were analyzed in a triplicate manner. Binding inhibiting activity (IC50 value) of a test compound for rat-type OT7T022 is shown in [Table 3].

T1 sequence (Q9GZQ6 whole entry): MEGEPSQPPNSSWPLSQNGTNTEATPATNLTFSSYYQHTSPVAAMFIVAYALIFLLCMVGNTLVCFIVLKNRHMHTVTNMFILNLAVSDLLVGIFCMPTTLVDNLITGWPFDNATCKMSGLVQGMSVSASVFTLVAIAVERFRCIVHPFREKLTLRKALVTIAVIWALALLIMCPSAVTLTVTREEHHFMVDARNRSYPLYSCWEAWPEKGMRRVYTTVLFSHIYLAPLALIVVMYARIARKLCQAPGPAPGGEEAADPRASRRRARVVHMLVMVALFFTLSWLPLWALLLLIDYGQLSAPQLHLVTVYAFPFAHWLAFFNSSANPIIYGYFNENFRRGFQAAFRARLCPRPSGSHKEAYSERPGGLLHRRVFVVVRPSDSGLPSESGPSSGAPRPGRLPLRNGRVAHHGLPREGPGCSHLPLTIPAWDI
T2 sequence (Q9EP86 whole entry): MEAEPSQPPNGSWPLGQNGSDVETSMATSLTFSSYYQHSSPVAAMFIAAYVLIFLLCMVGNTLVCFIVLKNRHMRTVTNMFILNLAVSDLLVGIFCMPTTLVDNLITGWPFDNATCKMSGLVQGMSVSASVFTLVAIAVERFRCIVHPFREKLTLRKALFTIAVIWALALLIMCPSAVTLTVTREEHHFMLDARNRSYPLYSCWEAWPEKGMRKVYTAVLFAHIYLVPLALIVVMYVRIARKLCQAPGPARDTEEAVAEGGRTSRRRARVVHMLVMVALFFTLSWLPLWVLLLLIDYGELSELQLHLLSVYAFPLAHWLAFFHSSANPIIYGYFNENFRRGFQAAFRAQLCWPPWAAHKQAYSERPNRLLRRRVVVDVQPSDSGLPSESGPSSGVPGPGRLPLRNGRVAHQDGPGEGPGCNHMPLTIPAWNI

IC50 [1]: < 1000 nM
IC50 [2]: < 1000 nM
IC50 [3]: < 1000 nM
Structure (SMILES): COc1c(OCCCNCCCc2ccccc2)cccc1[C@H]1O[C@H](CC(=O)NCc2ccccc2F)C(=O)N(CC(C)(C)C)c2ccc(Cl)cc21 (relative stereo) [Example 3, 2-(3,5-trans-7-Chloro-1-(2,2-dimethylpropyl)-5-{2-methoxy-3-[3-(3-phenylpropylamino)propoxy]phenyl}-2-oxo-1,2,3,5-tetrahydro-4,1-benzoxazepin-3-yl)-N-(2-fluorobenzyl)acetamide hydrochloride]
